Source: ChEMBL document CHEMBL1201862, “PubChem BioAssay data set” (2004)
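Cultured in 96-well plates, cells were exposed to test compound for 48 hours across five concentrations. The concentration for 50% growth inhibition is given as GI50.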 The source made the active and inactive calls. Rule as the data show it: active = GI50 up to about 1.1 µM and inactive = higher.

Assays:
Experiment in all cases: inhibition of tumour cell growth, NCI panel, 48 h
[1] = system: 786-0
[2] = system: A498
[3] = system: A549
[4] = system: ACHN
[5] = system: CCRF-CEM
[6] = system: COLO 205
[7] = system: DLD-1
[8] = system: DMS-114
[9] = system: DMS-273
[10] = system: EKVX
[11] = system: HCC 2998
[12] = system: HCT-116
[13] = system: HCT-15
[14] = system: HL-60
[15] = system: HOP-18
[16] = system: HOP-62
[17] = system: HT-29
[18] = system: IGROV-1
[19] = system: K562
[20] = system: KM-20L2
[21] = system: KM12
[22] = system: LOX IMVI
[23] = system: LXFL 529
[24] = system: M14
[25] = system: M19-MEL
[26] = system: MOLT-4
[27] = system: Malme-3M
[28] = system: NCI-H226
[29] = system: NCI-H23
[30] = system: NCI-H460
[31] = system: NCI-H522
[32] = system: OVCAR-3
[33] = system: OVCAR-4
[34] = system: OVCAR-5
[35] = system: OVCAR-8
[36] = system: RPMI-8226
[37] = system: RXF 393
[38] = system: SF-295
[39] = system: SF-539
[40] = system: SK-MEL-28
[41] = system: SK-MEL-2
[42] = system: SK-MEL-5
[43] = system: SK-OV-3
[44] = system: SN12C
[45] = system: SNB-19
[46] = system: SNB-75
[47] = system: SNB-78
[48] = system: SR
[49] = system: SW-620
[50] = system: TK-10
[51] = system: U-251
[52] = system: UACC-257
[53] = system: UACC-62
[54] = system: UO-31
[55] = system: XF498
[56] = system: CAKI-1
[57] = system: HOP-92
[58] = system: RXF 631
[59] = system: SF-268

## CC(C)(C)C1CCP(=O)(c2ccccc2)CC1 (stereo not drawn)
[1]
  GI50: > 100 µM (inactive)
[2]
  GI50: > 100 µM (inactive)
[3]
  GI50: > 100 µM (inactive)
[4]
  GI50: > 100 µM (inactive)
[5]
  GI50: > 100 µM (inactive)
[6]
  GI50: > 100 µM (inactive)
[7]
  GI50: > 100 µM (inactive)
[8]
  GI50: > 100 µM (inactive)
[9]
  GI50: > 100 µM (inactive)
[10]
  GI50: > 100 µM (inactive)
[11]
  GI50: > 100 µM (inactive)
[12]
  GI50: > 100 µM (inactive)
[13]
  GI50: > 100 µM
[14]
  GI50: > 100 µM (inactive)
[15]
  GI50: > 100 µM (inactive)
[16]
  GI50: > 100 µM (inactive)
[17]
  GI50: > 100 µM (inactive)
[18]
  GI50: > 100 µM (inactive)
[19]
  GI50: > 100 µM (inactive)
[20]
  GI50: > 100 µM (inactive)
[21]
  GI50: > 100 µM (inactive)
[22]
  GI50: > 100 µM (inactive)
[23]
  GI50: > 100 µM (inactive)
[24]
  GI50: > 100 µM (inactive)
[25]
  GI50: > 100 µM (inactive)
[26]
  GI50: > 100 µM (inactive)
[27]
  GI50: > 100 µM (inactive)
[28]
  GI50: > 100 µM (inactive)
[29]
  GI50: > 100 µM (inactive)
[30]
  GI50: > 100 µM (inactive)
[31]
  GI50: > 100 µM (inactive)
[32]
  GI50: > 100 µM (inactive)
[33]
  GI50: > 100 µM (inactive)
[34]
  GI50: > 100 µM (inactive)
[35]
  GI50: > 100 µM (inactive)
[36]
  GI50: > 100 µM (inactive)
[37]
  GI50: > 100 µM (inactive)
[38]
  GI50: > 100 µM (inactive)
[39]
  GI50: > 100 µM (inactive)
[40]
  GI50: > 100 µM (inactive)
[41]
  GI50: > 100 µM (inactive)
[42]
  GI50: > 100 µM (inactive)
[43]
  GI50: > 100 µM (inactive)
[44]
  GI50: > 100 µM (inactive)
[45]
  GI50: > 100 µM (inactive)
[46]
  GI50: > 100 µM (inactive)
[47]
  GI50: > 100 µM (inactive)
[48]
  GI50: > 100 µM (inactive)
[49]
  GI50: > 100 µM (inactive)
[50]
  GI50: > 100 µM (inactive)
[51]
  GI50: > 100 µM (inactive)
[52]
  GI50: > 100 µM (inactive)
[53]
  GI50: > 100 µM (inactive)
[54]
  GI50: > 100 µM (inactive)
[55]
  GI50: 2.1 µM (inactive)

## CCCN(CCC)C1CC(n2cc(C)c(=O)[nH]c2=O)OC1CO (stereo not drawn)
[1]
  GI50: > 100 µM (inactive)
[4]
  GI50: > 100 µM (inactive)
[56]
  GI50: > 100 µM (inactive)
[5]
  GI50: > 100 µM (inactive)
[6]
  GI50: > 100 µM (inactive)
[7]
  GI50: > 100 µM (inactive)
[8]
  GI50: > 100 µM (inactive)
[9]
  GI50: > 100 µM (inactive)
[11]
  GI50: > 100 µM (inactive)
[12]
  GI50: > 100 µM (inactive)
[14]
  GI50: > 100 µM (inactive)
[16]
  GI50: > 100 µM (inactive)
[57]
  GI50: > 100 µM (inactive)
[18]
  GI50: > 100 µM (inactive)
[19]
  GI50: > 100 µM (inactive)
[23]
  GI50: > 100 µM (inactive)
[24]
  GI50: > 100 µM (inactive)
[25]
  GI50: > 100 µM (inactive)
[26]
  GI50: > 100 µM (inactive)
[27]
  GI50: > 100 µM (inactive)
[28]
  GI50: > 100 µM (inactive)
[29]
  GI50: > 100 µM (inactive)
[30]
  GI50: > 100 µM (inactive)
[31]
  GI50: > 100 µM (inactive)
[33]
  GI50: > 100 µM (inactive)
[36]
  GI50: > 100 µM (inactive)
[58]
  GI50: > 100 µM (inactive)
[59]
  GI50: > 100 µM (inactive)
[39]
  GI50: > 100 µM (inactive)
[40]
  GI50: > 100 µM (inactive)
[41]
  GI50: > 100 µM (inactive)
[43]
  GI50: > 100 µM (inactive)
[44]
  GI50: > 100 µM (inactive)
[46]
  GI50: > 100 µM (inactive)
[47]
  GI50: > 100 µM (inactive)
[48]
  GI50: > 100 µM (inactive)
[53]
  GI50: > 100 µM (inactive)
[54]
  GI50: > 100 µM (inactive)
